{
  "source": "patent US20250163057A1",
  "about": "“DCN-1 MODULATING COMPOUNDS AND METHODS OF USE THEREOF” (Cellarity, Inc., priority 2023, published 2025)",
  "key": {"[1]": {"test_system": "Cullin-3 (CUL3) neddylation", "test": "AlphaLISA assay for Cullin-3 (CUL3) neddylation in TF 1 cells", "type": "cell-based", "conditions": "3 hours treatment", "summary_of_the_method": "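TF 1 cells in unsupplemented IMDM treated with compound concentrations for 3 h, then lysed. CUL3 neddylation detected by AlphaLISA (biotinylated anti-NEDD8, anti-CUL3 acceptor beads overnight, streptavidin donor beads 1 h); normalized to vehicle (0%) and 1 μM DI-1548 (100%), IC50 from Hill fits.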"}, "[2]": {"biological_target": "DCN1 (DCUND1) protein PONY domain (Homo sapiens (Human), UniProt Q96GG9)", "sequence (Q96GG9 60-248)": "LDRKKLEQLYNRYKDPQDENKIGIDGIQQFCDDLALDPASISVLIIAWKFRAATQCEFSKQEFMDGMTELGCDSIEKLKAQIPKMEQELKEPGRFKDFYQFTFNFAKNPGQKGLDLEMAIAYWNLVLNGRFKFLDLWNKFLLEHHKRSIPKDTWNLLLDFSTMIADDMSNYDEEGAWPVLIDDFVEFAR", "test": "TR-FRET assay, DCN1 binding with FAM-labeled probe", "summary_of_the_method": "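TR-FRET ratio (Tb-DCN1 to FAM-probe) read at 1, 5 and 24 hrs after compound addition. Protein: recombinant PONY domain from E. coli, biotinylated and coupled to streptavidin terbium. Either 5 nM DCN1 with 20 nM FAM-probe, or 0.31 nM DCN1 with 100 nM FAM-labelled plus 800 nM unlabelled probe.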"}, "[3]": {"conditions": "24 hr after treatment with compound, read-out: TR FRET IC50 24 hr"}, "[4]": {"conditions": "TR FRET IC50 1 hr (nM), 1 hr after treatment with compound"}},
  "note": "Like-named read-outs stand apart in the source and are kept apart here.",
  "data": [
    {"smiles": "CCN1C(=O)[C@@H](NC(=O)c2cccc(C(F)(F)F)c2)[C@@H](C2CC2)c2c(C(=O)N(CC#N)C3CC3)nn(-c3ccccc3)c21", "note": "[Compound I-619]", "values": [
      {"measurement": "IC50", "setting": "[1]; Homo sapiens, TF-1, 3 h", "value": "0.1 to 1", "unit": "µM"},
      {"measurement": "IC50", "setting": "[2]; [3]", "value": "≤ 200", "unit": "nM"},
      {"measurement": "IC50", "setting": "[2]; [4]", "value": "1000 to 3000", "unit": "nM"}
    ]},
    {"smiles": "CCN1C(=O)[C@@H](NC(=O)c2cccc(C(F)(F)F)c2)[C@@H](C2CC2)c2c(C(=O)N3[C@H](C)CC[C@H]3C#N)nn(C3CCOCC3)c21", "note": "[Compound I-621]", "values": [
      {"measurement": "IC50", "setting": "[1]; Homo sapiens, TF-1, 3 h", "value": "> 1", "unit": "µM"},
      {"measurement": "IC50", "setting": "[2]; [3]", "value": "1000 to 3000", "unit": "nM"},
      {"measurement": "IC50", "setting": "[2]; [4]", "value": "1000 to 3000", "unit": "nM"}
    ]},
    {"smiles": "CCN1C(=O)[C@@H](NC(=O)c2cccc(C(F)(F)F)c2)[C@@H](c2ccc(F)cc2)c2c(CN3C(=O)CC[C@H]3C#N)nn(-c3ccccc3)c21", "note": "[Compound I-622, N-((4S,5S)-3-(((S)-2-cyano-5-oxopyrrolidin-1-yl)methyl)-7-ethyl-4-(4-fluorophenyl)-6-oxo-1-phenyl-4,5,6,7-tetrahydro-1H-pyrazolo[3,4-b]pyridin-5-yl)-3-(trifluoromethyl)benzamide]", "values": [
      {"measurement": "IC50", "setting": "[1]; Homo sapiens, TF-1, 3 h", "value": "> 1", "unit": "µM"},
      {"measurement": "IC50", "setting": "[2]; [3]", "value": "1000 to 3000", "unit": "nM"},
      {"measurement": "IC50", "setting": "[2]; [4]", "value": "1000 to 3000", "unit": "nM"}
    ]},
    {"smiles": "CCN1C(=O)[C@@H](NC(=O)c2cccn(C3CC3)c2=O)[C@@H](C2CC2)c2c(C(=O)N3[C@H](C#N)C[C@H]4C[C@H]43)nn(C3CCOCC3)c21", "note": "[Compound I-624]", "values": [
      {"measurement": "IC50", "setting": "[1]", "value": "≤ 0.1", "unit": "µM"},
      {"measurement": "IC50", "setting": "[2]; [3]", "value": "200 to 1000", "unit": "nM"},
      {"measurement": "IC50", "setting": "[2]; [4]", "value": "200 to 1000", "unit": "nM"}
    ]},
    {"smiles": "CCN1C(=O)[C@@H](NC(=O)c2cccn(C3CC3)c2=O)[C@@H](C2CC2)c2c(C(=O)N3[C@H](C#N)C[C@H]4C[C@H]43)nn(C3CCOCC3)c21", "note": "[Compound I-625]", "values": [
      {"measurement": "IC50", "setting": "[1]", "value": "> 1", "unit": "µM"},
      {"measurement": "IC50", "setting": "[2]; [3]", "value": "1000 to 3000", "unit": "nM"},
      {"measurement": "IC50", "setting": "[2]; [4]", "value": "1000 to 3000", "unit": "nM"}
    ]},
    {"smiles": "CCN1C(=O)[C@@H](NC(=O)c2cccc(C(F)(F)F)c2)[C@@H](C2CC2)c2c(C(=O)N3CC(=O)C[C@H]3C#N)nn(C3CCOCC3)c21", "note": "[Compound I-626, N-((4S,5S)-3-((S)-2-cyano-4-oxopyrrolidine-1-carbonyl)-4-cyclopropyl-7-ethyl-6-oxo-1-(tetrahydro-2H-pyran-4-yl)-4,5,6,7-tetrahydro-1H-pyrazolo[3,4-b]pyridin-5-yl)-3-(trifluoromethyl)benzamide]", "values": [
      {"measurement": "IC50", "setting": "[1]; Homo sapiens, TF-1, 3 h", "value": "≤ 0.1", "unit": "µM"},
      {"measurement": "IC50", "setting": "[2]; [3]", "value": "≤ 200", "unit": "nM"},
      {"measurement": "IC50", "setting": "[2]; read-out: TR FRET IC50 1 hr, 1 hr after treatment with compound", "value": "≤ 200", "unit": "nM"}
    ]},
    {"smiles": "CCN1C(=O)[C@@H](NC(=O)COc2ccccc2)[C@@H](C2CC2)c2c(C(=O)N3[C@H](C#N)C[C@H]4C[C@H]43)nn(C3CCOCC3)c21", "note": "[Compound I-628]", "values": [
      {"measurement": "IC50", "setting": "[1]; Homo sapiens, TF-1, 3 h", "value": "0.1 to 1", "unit": "µM"},
      {"measurement": "IC50", "setting": "[2]; [3]", "value": "1000 to 3000", "unit": "nM"},
      {"measurement": "IC50", "setting": "[2]; [4]", "value": "1000 to 3000", "unit": "nM"}
    ]},
    {"smiles": "CCN1C(=O)[C@@H](NC(=O)CN2CC(c3ccccc3)CC2=O)[C@@H](C2CC2)c2c(C(=O)N3[C@H](C#N)C[C@H]4C[C@H]43)nn(C3CCOCC3)c21", "note": "(stereo partly drawn) [Compound I-629]", "values": [
      {"measurement": "IC50", "setting": "[1]; Homo sapiens, TF-1, 3 h", "value": "> 1", "unit": "µM"},
      {"measurement": "IC50", "setting": "[2]; [3]", "value": "1000 to 3000", "unit": "nM"},
      {"measurement": "IC50", "setting": "[2]; [4]", "value": "1000 to 3000", "unit": "nM"}
    ]},
    {"smiles": "CCN1C(=O)[C@@H](NC(=O)c2cccc(C(F)(F)F)c2)[C@@H](c2ccc(F)cc2)c2c(C(=O)N3CCC=C3C#N)nn(C3CCOCC3)c21", "note": "[Compound I-631, N-((4S,5S)-3-(5-cyano-2,3-dihydro-1H-pyrrole-1-carbonyl)-7-ethyl-4-(4-fluorophenyl)-6-oxo-1-(tetrahydro-2H-pyran-4-yl)-4,5,6,7-tetrahydro-1H-pyrazolo[3,4-b]pyridin-5-yl)-3-(trifluoromethyl)benzamide]", "values": [
      {"measurement": "IC50", "setting": "[1]; Homo sapiens, TF-1, 3 h", "value": "0.1 to 1", "unit": "µM"},
      {"measurement": "IC50", "setting": "[2]; [3]", "value": "≤ 200", "unit": "nM"},
      {"measurement": "IC50", "setting": "[2]; [4]", "value": "200 to 1000", "unit": "nM"}
    ]},
    {"smiles": "CCN1C(=O)[C@@H](NC(=O)c2ccc3[nH]cnc3c2)[C@@H](C2CC2)c2c(C(=O)N3[C@H](C#N)C[C@H]4C[C@H]43)nn(C3CCOCC3)c21", "note": "[Compound I-632]", "values": [
      {"measurement": "IC50", "setting": "[1]; Homo sapiens, TF-1, 3 h", "value": "> 1", "unit": "µM"},
      {"measurement": "IC50", "setting": "[2]; [3]", "value": "1000 to 3000", "unit": "nM"},
      {"measurement": "IC50", "setting": "[2]; [4]", "value": "1000 to 3000", "unit": "nM"}
    ]},
    {"smiles": "CCN1C(=O)[C@@H](NC(=O)c2cccc3c2CCCO3)[C@@H](C2CC2)c2c(C(=O)N3[C@H](C#N)C[C@H]4C[C@H]43)nn(C3CCOCC3)c21", "note": "[Compound I-633]", "values": [
      {"measurement": "IC50", "setting": "[1]; Homo sapiens, TF-1, 3 h", "value": "0.1 to 1", "unit": "µM"},
      {"measurement": "IC50", "setting": "[2]; [3]", "value": "200 to 1000", "unit": "nM"},
      {"measurement": "IC50", "setting": "[2]; [4]", "value": "1000 to 3000", "unit": "nM"}
    ]},
    {"smiles": "CCN1C(=O)[C@@H](NC(=O)[C@@H]2CCN(Cc3ccccc3)C2)[C@@H](C2CC2)c2c(C(=O)N3[C@H](C#N)C[C@H]4C[C@H]43)nn(C3CCOCC3)c21", "note": "[Compound I-634]", "values": [
      {"measurement": "IC50", "setting": "[1]; Homo sapiens, TF-1, 3 h", "value": "> 1", "unit": "µM"},
      {"measurement": "IC50", "setting": "[2]; [3]", "value": "1000 to 3000", "unit": "nM"},
      {"measurement": "IC50", "setting": "[2]; [4]", "value": "1000 to 3000", "unit": "nM"}
    ]}
  ]
}
